Laboratory results from patent publication US12503471B2, “Triazatricycle compounds for the treatment of autoimmune disease” (Hoffmann-La Roche Inc., priority 2019, dated 2025).

Test: Human microsomal stability assay
Type: in vitro ADME
Conditions: human liver microsomes, 1 μM test compound, 0.5 mg/mL protein, 37° C., pH 7.4
Procedure: Human Microsomal Stability Assay
Human liver microsomes (Cat.NO.: 452117, Corning, USA) were preincubated with test compound for 10 minutes at 37° C. in 100 mM potassium phosphate buffer, pH 7.4. The reactions were initiated by adding NADPH regenerating system. The final incubation mixtures contained 1 μM test compound, 0.5 mg/mL liver microsomal protein, 1 mM MgCl2, 1 mM NADP, 1 unit/mL isocitric dehydrogenase and 6 mM isocitric acid in 100 mM potassium phosphate buffer, pH 7.4. After incubation times of 0, 3, 6, 9, 15 and 30 minutes at 37° C., 300 μL of cold ACN (including internal standard) was added to 100 μL incubation mixture to terminate the reaction. Following precipitation and centrifugation, 100 uL supernatant will be taken out and added 300 uL water. The amount of compound remaining in the samples was determined by LC-MS/MS. Controls of no NADPH regenerating system at zero and 30 minutes were also prepared and analyzed. The results were categorized as: low (7.0 mL/min/kg), medium (7.0-16.2 mL/min/kg) and high (16.2-23.2 mL/min/kg).

Row | CL (h) [mL/min/kg] | SMILES
1 | 6.2 | N#Cc1ccc(N2CCN3Cc4cc(N5CCNCC5)ncc4C3C2)c2cccnc12 (centres unmarked) [Example 1, 5-(11-Piperazin-1-yl-4,7,12-triazatricyclo[7.4.0.02,7]trideca-1(9),10,12-trien-4-yl)quinoline-8-carbonitrile]
2 | 8.1 | CC1(N)CCN(c2ccc3c(n2)CN2CCN(c4ccc(C#N)c5ncccc45)C[C@H]32)CC1 [Example 4B, 5-[(2S)-11-(4-amino-4-methyl-1-piperidyl)-4,7,10-triazatricyclo[7.4.0.02,7]trideca-1(9),10,12-trien-4-yl]quinoline-8-carbonitrile]
